# Reference: patent publication US20060194740A1, “NOD1 as an anti-tumor agent” (priority 2005, published 2006)
# Starred links: 1 amine or outer side, 2 acyl side, 3 side chain; linkers in the order of their positions; H or OH if unused. Non-standard residues stand in square brackets, D forms with d. Residues, ends and D or L forms follow the SMILES beside them. No end group written: not given here. *: point of attachment. mesoDAP = meso-diaminopimelic acid, O=C(O)[C@@H](CCC[C@H](N[*:1])C(=O)[*:2])N[*:3]; Diaminopimelic acid = diaminopimelic acid; Cbz = O=C(OCc1ccccc1)*; CH2F = FC*
# Experiments:
# MCF-7 Nod2 cells [1] = test: IL-8 secretion ELISA, MCF-7 Nod2 cells; format: cell-based, human; details: 24 h (FIG. 5C)
# Method: IL-8 ELISA. Concentrations of IL-8 in the culture supernatants of transfected HeLa cells were measured by ELISA using 96-well Immunlon plates (Dynatech Laboratories, Chantilly, Va.). ELISA was performed using the mAb MAB208 for capture and a biotinylated polyclonal rabbit anti-human IL-8 Ab (R&D Systems, Minneapolis, Minn.) followed by streptavidin HRP for detection.
# (§1) Experiments were also performed to ascertain whether activation of Nod2 by its specific activator, muramyl dipeptide (MDP), would initiate apoptosis in parental MCF-7 cells or in MCF-7 cells over-expressing Nod2 (MCF-7 Nod2). Thus, γTriDAP or MDP were added to each of these lines and apoptosis (FIG. 5A) and IL-8 production (FIG. 5C) were measured. […] Expression of Nod1 and Nod2 in MCF-7 stable transfectants was confirmed by immunoblotting (FIG. 5B).
# MCF-7 Nod2 cells [2] = test: Propidium iodide apoptosis assay, MCF-7 Nod2 cells; format: cell-based, human; details: MDP plus CHX, 48 h (FIG. 5A)
# Method: (§2) Cell viability assays. Propidium iodide exclusion assay: Cells were stimulated as indicated for 2 days. Subsequently, cells were harvested, washed twice in FACS buffer (PBS containing 1% FCS and 0.1% NaN3) and resuspended in propidium iodide (PI)—containing FACS buffer (4 ug/ml). The extent of cell death was analyzed with a FACSCalibur flow cytometer (Becton Dickinson, Mountain View, Calif.). DAPI staining: MCF-7 cells were plated in chamber slides, and stimulated for 2 days. Cells were washed with PBS and apoptotic nuclei were stained with 1 μg/ml DAPI (Sigma Chemical Co., St. Louis, Mo.). Cells were fixed in 4% paraformaldehyde and examined by fluorescence microscopy.
# as §1
# MCF-7 RIP2 KD cells = test: Propidium iodide apoptosis assay, MCF-7 RIP2 KD cells; format: cell-based, human; details: cells expressing RIP2 KD; 20 μg/ml, CHX, 48 hr (FIG. 13A)
# Method: as §2
# Several RIP2 mutants were stably expressed in MCF-7 cells to evaluate the role of the RIP2 kinase activity in γTriDAP-induced apoptosis. Expression of RIP2 lacking its CARD domain completely abrogated Nod1-induced cell death (FIG. 7A). […] Cells expressing wild type RIP2 and RIP2 KD constructs were sensitive to lower concentrations of γTriDAP and died faster than cells expressing only Nod1 (FIG. 13C) or than parental MCF-7Blasto cells (data not shown).
# MCF-7 Nod1 cells = test: Propidium iodide exclusion cell death assay, MCF-7 Nod1 cells over-expressing Nod1; format: cell-based, human; details: for effect on γTriDAP-induced cell death: caspase inhibitor 50 uM, 30 min before γTriDAP/CHX for 48 h (FIG. 2D); for effect on γTriDAP-induced apoptosis: inhibitor 100 uM, 30 min prior to γTriDAP/CHX for 48 h (FIG. 6A)
# Method: as §2
# (§3) To further investigate the role of Nod1 in apoptosis, a variety of cell types were incubated with the Nod1 ligand, […] (γTriDAP), which specifically activates Nod1. The cell types tested included the parental MCF-7 cell line, the Nod1-deficient MCF-7C20 clone, and a cell line engineered to contain an additional human Nod1 allele (MCF-7Nod1) so that Nod1 was over-expressed. To determine whether the resistance of C20 cells to γTriDAP-induced apoptosis resulted from the absence of Nod1, human Nod1 was stably expressed in MCF-7 C20 cells to produce Nod1-sufficient C20 cells (C20/Nod1). As another control, the parental MCF-7 cell line was transfected with an empty retroviral vector to generate MCF-7 Blasto cells. Cells were treated with γTriDAP in the presence or absence of cycloheximide (CHX) and cell death was then determined by propidium iodide staining and flow cytometry.
# MCF-7 cells = test: Propidium iodide exclusion cell death assay, wild-type (parental/Blasto) MCF-7 cells; format: cell-based, human; details: for sensitivity to cell death: parental versus C20 cells (data not shown)
# Method: as §2, §3
# MCF-7 C20 cells [3] = test: 3H-thymidine proliferation assay, MCF-7 C20 cells; format: cell-based, human; details: tamoxifen added in the culture medium (data not shown)
# Method: Retroviral transfections. The various genes used in this study were cloned into pMSCV-Blasto, pBabe-Puro or pBabe-Neo retroviral vectors. MCF-7 cells were stably transfected using available procedures. Briefly, amphotropic 293 cells were transfected with retroviral vectors encoding selected Nod1, Nod2 and other proteins. Twenty-four hours post-transfection, cells were incubated at 32° C. overnight to produce viral particles. Target cells were infected the next day with virus-containing 293 cell supernatants containing recombinant retroviral particles. Cells were selected with 10 μg/ml blasticidin S (Calbiochem EMD Biosciences Inc., San Diego, Calif.), 500 μg/ml […] (Invitrogen, Carlsbad, Calif.) or 5 μg/ml puromycin (Calbiochem). The expression of all constructs was confirmed by Western blot analysis. To determine the effects of 17β-estradiol (Calbiochem), cells were cultured in phenol red-free DMEM supplemented with […]. Cells were seeded in 96 well plates with various concentration of 17β-estradiol (E2) for 24 h and pulsed with ^3H-thymidine (1 μCi/well, MP Biomedicals, Irvine, Calif.). Cells were harvested on glass fiber filters and radioactivity measured by liquid scintillation. […]
# JNK = JNK phosphorylation in MCF-7 RIP2 transfectants; format: cell-based, human; details: γTriDAP with cycloheximide for 2 h in wild type RIP2 or RIP2 KD cells (FIG. 7C)
# Method: (§4) Western blot analysis and immunoprecipitation. Cells were washed extensively and lysed using lysis buffer containing 50 mM Hepes, 100 mM NaCl, 2 mM EDTA, 10% glycerol, 1% Nonidet P-40, 14 μM pepstatin A, 100 uM leupeptin, 3 mM benzamidine, 1 mM PMSF, 1 mM sodium pyrophosphate, 10 mM sodium orthovanadate, 100 U/ml aprotinin, and 100 mM sodium fluoride. After incubation for 30 min on ice, cell lysates were centrifuged (14000 rpm, 10 min, 4° C.) and the supernatants were recovered. For immunoprecipitation, cell lysates were mixed with 5 μg of antibody for 3 hour at 4° C. under constant agitation. Immune complexes were allowed to bind to 20 μl protein A-Sepharose beads overnight, beads were washed three times with lysis buffer. Immunoprecipitates were separated on SDS-PAGE and transferred to PVDF membranes.
# The effect of RIP2 expression on γTriDAP-induced JNK phosphorylation was also examined (FIG. 7C).
# MCF7-C20Nod1 cells = test: IL-8 production, MCF7-C20Nod1 cells; format: cell-based, human; details: wild-type Nod1 expressed in MCF7-C20Nod1 cells (FIG. 5C)
# [4] = test system: poly(ADP-ribose)polymerase (PARP) and capases 6, 7, 8 and 9; test: Western blot of PARP and caspase cleavage in MCF-7 cells; format: cell-based, human; details: 24 h (FIG. 3)
# Method: as §4
# Further confirmation that γTriDAP induces apoptosis was obtained using two broad spectrum caspase inhibitors, z-VAD-FMK and Boc-D-FMK. Both z-VAD-FMK and Boc-D-FMK abrogated γTriDAP-induced cell death (FIG. 2D).
# MCF-7 C20 cells [5] = test: Propidium iodide exclusion cell death assay, Nod1-deficient MCF-7 C20 cells; format: cell-based, human
# Method: as §2, with “Propidium iodide exclusion assay: Cells were stimulated as indicated for 2 days.” left out
# as §3
# MCF-7 C20/Nod1 cells = test: Propidium iodide exclusion apoptosis assay, MCF-7 C20/Nod1 cells; format: cell-based, human; details: γTriDAP/CHX (FIG. 12A)
# Method: as §2, §3
# To determine whether the presence of estrogens modulates Nod1-induced apoptotic pathway, cells were cultured in medium containing charcoal-treated serum.
# MCF-7C20 cells = test: IL-8 production, MCF-7C20 cells; format: cell-based, human; details: MCF-7C20 cells (data not shown)
# [6] = biological target: endogenous NOD1 protein of parental MCF-7 cells (human) (UniProt Q9Y239); test: cell-based or functional assay
# [7] = biological target: human Nod1 stably expressed in cell lines (human) (UniProt Q9Y239); test: cell-based or functional assay
# Myc-NOD1 (human) = Myc-NOD1 (human) (UniProt Q9Y239); test: cell-based or functional assay
# SK-BR3 = test: Apoptosis by PI staining, SK-BR3 cells stably expressing Nod1; format: cell-based, human; details: SKBR3 cells; αTriDAP substituted for γTriDAP, with TNFα and cycloheximide (FIG. 9B)
# Method: as §2
# To determine if Nod1-dependent apoptosis occurs in other human cell lines, a series of epithelial cell lines were examined where Nod1 was stably expressed to enhance sensitivity to activation of the Nod1 pathway. Cells were treated with TNFα (T) and γTriDAP (γ) in the presence or absence of CHX (C) and monitored for viability by PI staining as a measure of apoptosis (Table 1).
# [8] = agent alone, wild type cells (FIG. 2A)
molecule,measurement,setting,value
"CC(=O)N[C@H]1C(O)O[C@H](CO)[C@@H](O)[C@@H]1O[C@H](C)C(=O)N[C@@H](C)C(=O)N[C@H](CCC(=O)O)C(N)=O (mixture of isomers) [MDP, muramyl dipeptide]",IL-8 secretion,MCF-7 Nod2 cells [1],did result in IL-8 secretion
same,apoptosis,MCF-7 Nod2 cells [2],did not undergo increased apoptosis
same,apoptosis,MCF-7 RIP2 KD cells,effective at inducing high levels of apoptosis
COC(=O)CC(NC(=O)OC(C)(C)C)C(=O)CF [Boc-D-FMK],effect on γTriDAP-induced cell death,MCF-7 Nod1 cells,abrogated
CC[C@@]1(O)C(=O)OCc2c1cc1n(c2=O)Cc2cc3ccccc3nc2-1 [camptothecin],sensitivity to cell death,MCF-7 cells,equally sensitive
C[C@@H]1C[C@@H]([C@H](O)CC2CC(=O)NC(=O)C2)C(=O)[C@@H](C)C1 [cycloheximide],cell death,MCF-7 cells; [8],No cell death
COc1cccc2c1C(=O)c1c(O)c3c(c(O)c1C2=O)C[C@@](O)(C(=O)CO)C[C@@H]3O[C@H]1C[C@H](N)[C@H](O)[C@H](C)O1 [doxirubicin],sensitivity to cell death,MCF-7 cells,equally sensitive
"CC/C(=C(\c1ccccc1)c1ccc(OCCN(C)C)cc1)c1ccccc1 [tamoxifen, reference compound]",effect on estrogen-induced proliferation,MCF-7 C20 cells [3],blocked
same,effect on γTriDAP-induced cell death,"MCF-7 cells; tamoxifen prior to γTriDAP/CHX, MCF-7 cell lines (FIG. 12B)",partially blocked
COC(=O)C[C@H](NC(=O)[C@H](C)NC(=O)[C@@H](NC(=O)OCc1ccccc1)C(C)C)C(=O)CF [z-VAD-FMK] (Cbz-Val-Ala-Asp(OMe)-CH2F),effect on γTriDAP-induced cell death,MCF-7 Nod1 cells,abrogated
same,effect on γTriDAP-induced apoptosis,MCF-7 Nod1 cells,blocked γTriDAP-induced apoptosis nearly completely
D-Ala-L-Glu-Diaminopimelic acid ([dA]-Glu-[Diaminopimelic acid]; also: Glu gamma-carboxyl linked to DAP (γTriDAP)),phosphorylation of JNK,JNK,induced phosphorylation of JNK
same,γTriDAP-induced IL-8 production,MCF7-C20Nod1 cells,restored
same,cell death,MCF-7 cells; [8],No cell death
same,cell death,"MCF-7 cells; γTriDAP in the presence of cycloheximide, wild-type MCF-7, PI staining, flow cytometry (FIG. 2A)",about 25%
same,"proteolytic cleavage of PARP and capases 6, 7, 8 and 9",[4],resulted in proteolytic cleavage
same,apoptosis,"MCF-7 C20 cells [5]; γTriDAP plus cycloheximide, MCF-7C20 without Nod1 expression",totally resistant
same,γTriDAP-induced apoptosis,MCF-7 C20/Nod1 cells; with steroids,80%
same,γTriDAP-induced apoptosis,MCF-7 C20/Nod1 cells; without steroids (charcoal-treated serum),10%
same,cell death,"MCF-7 Nod1 cells; combination of cycloheximide and γTriDAP, 48 h treatment, MCF-7Nod1 cells",~60%
same,γTriDAP-induced IL-8 production,MCF-7C20 cells,inhibited
D-Ala-L-Glu-Diaminopimelic acid (γTriDAP) (peptide),"cell death by propidium iodide staining and flow cytometry; wild-type MCF-7 cells, γTriDAP with cycloheximide",[6],25%
same,γTriDAP-induced apoptosis; C20/Nod1 cells cultured with steroids,[7],80%
same,γTriDAP-induced apoptosis; C20/Nod1 cells cultured without steroids,[7],10%
same,"cell death by propidium iodide staining and flow cytometry; MCF-7Nod1 cells, γTriDAP with cycloheximide, 48 h",Myc-NOD1 (human),60%
IETD,effect on γTriDAP-induced apoptosis,MCF-7 Nod1 cells,marked inhibitory effects
TNFα,TNFα-induced apoptosis,"MCF-7 C20 cells [5]; MCF-7 C20 versus parent MCF-7 cells, TNF 0-40 ng/ml, 20 h (FIG. 1C)",significantly more resistant
αTriDAP: inactive control tri-peptide where mesoDAP was bound to Glu in the a position rather than in the γ position (Ala-Glu-[mesoDAP]; not fully specified (residue 1); also: DAP bound to Glu alpha-carboxyl (αTriDAP)),apoptosis,SK-BR3,reduced apoptosis
same,cell death,MCF-7 cells; incubated with MCF-7 cells in the presence of cycloheximide (FIG. 2A),did not induce cell death
same,"proteolytic cleavage of PARP and capases 6, 7, 8 and 9",[4],not
